Data taken from patent EP0487095B1, “Pyridyl derivatives, medicines containing these compounds and processes for their preparation” (Dr. Karl Thomae GmbH, priority 1990, dated 1992).

How the values were obtained:
Thromboxansynthetase = target: T1, Thromboxansynthetase (Homo sapiens, UniProt P24557); assay: Inhibition of thromboxane synthetase (TXB2 formation from 14C-arachidonic acid in platelet suspension); format: cell-based; settings: 10 min preincubation at room temperature, read-out: Hemmung der Thromboxansynthetase IC₅₀
T1 construct: Aliquots der erhaltenen Plättchensuspension werden mit der Testsubstanz bzw; Lösungsmittel als Kontrolle 10 Minuten bei Raumtemperatur inkubiert; endogenous in cells; host or cells: gel-filtered human platelets from venous blood
T1 sequence (P24557 1-533): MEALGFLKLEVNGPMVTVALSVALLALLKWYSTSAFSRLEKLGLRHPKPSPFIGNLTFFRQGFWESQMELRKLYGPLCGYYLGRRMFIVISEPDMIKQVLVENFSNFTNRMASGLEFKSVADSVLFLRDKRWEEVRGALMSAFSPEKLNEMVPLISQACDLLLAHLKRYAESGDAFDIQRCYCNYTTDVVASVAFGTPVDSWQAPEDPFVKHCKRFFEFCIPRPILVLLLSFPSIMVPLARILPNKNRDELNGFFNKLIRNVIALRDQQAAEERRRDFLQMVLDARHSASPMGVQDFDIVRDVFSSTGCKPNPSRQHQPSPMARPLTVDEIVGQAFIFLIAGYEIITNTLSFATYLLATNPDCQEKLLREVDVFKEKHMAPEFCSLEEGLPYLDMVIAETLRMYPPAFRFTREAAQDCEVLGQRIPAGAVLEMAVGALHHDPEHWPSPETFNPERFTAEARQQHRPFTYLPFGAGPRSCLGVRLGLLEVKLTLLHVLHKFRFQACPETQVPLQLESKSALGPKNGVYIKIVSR
Protocol: 3. Bestimmung der Hemmwirkung auf die Thromboxansynthetase
Venöses Humanblut wird mit 13 mM Na3-Citrat antikoaguliert und 10 Minuten bei 170 x g zentrifugiert. Das überstehende plättchenreiche Plasma wird zur Entfernung der Plasmaproteine über eine Sepharose-2B-Säule gegeben. Aliquots der erhaltenen Plättchensuspension werden mit der Testsubstanz bzw. Lösungsmittel als Kontrolle 10 Minuten bei Raumtemperatur inkubiert und nach Zugabe 14C-markierter Arachidonsäure die Inkubation weitere 10 Minuten fortgesetzt. Nach Abstoppen mit 50 µl Zitronensäure wird 3 x mit 500 µl Essigester extrahiert und die vereinigten Extrakte mit Stickstoff abgeblasen. Der Rückstand wird in Essigester aufgenommen, auf DC-Folie aufgetragen und mit Chloroform:Methanol:Eisessig:Wasser (90:8:1:0,8, v/v/v/v) getrennt. Die getrockneten DC-Folien werden 3 Tage auf Röntgenfilm gelegt, die Autoradiogramme entwickelt und mit ihrer Hilfe die aktiven Zonen auf der Folie markiert. Nach Ausschneiden wird die Aktivität im Szintillationszähler bestimmt und die Hemmung der TXB2-Bildung berechnet. Die IC₅₀ wird durch lineare Interpolation bestimmt.

Thromboxan = target: T2, Thromboxan (Homo sapiens, UniProt P21731); assay: Thromboxane-antagonistic effect (displacement of 3H-labelled ligand from platelet suspension); format: binding; settings: 60 min at room temperature, read-out: Thromboxanantagonistische Wirkung IC₅₀
T2 construct: Aliquote der erhaltenen Plättchensuspension werden mit der Testsubstanz, dem Liganden (3H-markiert) und einem Marker (14C-markiert) 60 Minuten bei Raumtemperatur inkubiert; endogenous in cells; host or cells: gel-filtered human platelets from venous blood
T2 sequence (P21731 1-343): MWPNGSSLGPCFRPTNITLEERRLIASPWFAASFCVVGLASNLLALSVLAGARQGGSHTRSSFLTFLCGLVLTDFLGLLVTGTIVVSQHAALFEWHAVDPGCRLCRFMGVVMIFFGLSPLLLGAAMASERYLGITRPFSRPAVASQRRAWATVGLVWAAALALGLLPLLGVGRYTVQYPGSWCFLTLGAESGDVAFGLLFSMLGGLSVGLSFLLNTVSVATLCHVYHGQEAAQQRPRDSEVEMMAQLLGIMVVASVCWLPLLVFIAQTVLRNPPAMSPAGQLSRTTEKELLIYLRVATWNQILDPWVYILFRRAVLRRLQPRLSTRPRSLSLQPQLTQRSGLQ
Protocol: 2. Thromboxanantagonistische Wirkung
Venöses Humanblut wird mit 13 mM Na3-Citrat antikoaguliert und 10 Minuten bei 170 x g zentrifugiert. Das überstehende plättchenreiche Plasma wird zur Entfernung der Plasmaproteine über eine Sepharose-2B-Säule gegeben. Aliquote der erhaltenen Plättchensuspension werden mit der Testsubstanz, dem Liganden (3H-markiert) und einem Marker (14C-markiert) 60 Minuten bei Raumtemperatur inkubiert und danach 20 Sekunden bei 10 000 x g abzentrifugiert. Der Überstand wird abgezogen und das Pellet in NaOH gelöst. Die 3H-Aktivität im Überstand entspricht dem freien Liganden, 14C ergibt die Konzentration des Markers. 3H im Pellet entspricht dem gebundenen Liganden, 14C wird zur Korrektur für Ligand im Extrazellulärraum verwendet. Aus den Bindungswerten für verschiedene Konzentrationen der Testsubstanz wird nach Iteration die Verdrängungskurve ermittelt und die IC₅₀ bestimmt.

Thrombozytenaggregation = assay: Collagen-induced platelet aggregation (Born and Cross) in platelet-rich plasma; format: cell-based; settings: Homo sapiens; platelet-rich plasma of healthy subjects, 10 min preincubation at 37°C, 50% change of optical density; read-out: Hemmung der collagen-induzierten Aggregation EC₅₀
Description: 1. Antithrombotische Wirkung
Die Thrombozytenaggregation wird nach der Methode von Born und Cross (J. Physiol. 170, 397 (1964)) in plättchenreichem Plasma gesunder Versuchspersonen gemessen. Zur Gerinnungshemmung wird das Blut mit Natriumcitrat 3,14 % im Volumenverhältnis 1:10 versetzt.
Collagen-induzierte Aggregation
Der Verlauf der Abnahme der optischen Dichte der Plättchensuspension wird nach Zugabe der aggregationsauslösenden Substanz photometrisch gemessen und registriert. Aus dem Neigungswinkel der Dichtekurve wird auf die Aggregationsgeschwindigkeit geschlossen. Der Punkt der Kurve, bei dem die größte Lichtdurchlässigkeit vorliegt, dient zur Berechnung der "optical density".
Die Collagen-Menge wird möglichst gering gewählt, aber doch so, daß sich eine irreversibel verlaufende Reaktionskurve ergibt. Verwendet wird das handelsübliche Collagen der Firma Hormonchemie, München. Vor der Collagen-Zugabe wird das Plasma jeweils 10 Minuten mit der Substanz bei 37°C inkubiert.
Aus den erhaltenen Meßzahlen wird graphisch eine EC₅₀ bestimmt, die sich auf eine 50%ige Änderung der "optical density" im Sinne einer Aggregationshemmung bezieht.

Compound | IC50 (Thromboxansynthetase) | IC50 (Thromboxan) | EC50 (Thrombozytenaggregation)
O=C(O)CCCC=C(c1ccc(NC(=O)C2CC2c2ccc(Cl)cc2)cc1)c1cccnc1 (single isomer, unassigned; (-)) [A, (-)-5E-6-[4-(Z-2-(4-Chlorphenyl)-cyclopropyl-1-carboxamido)-phenyl]-6-(3-pyridyl)-hex-5-ensäure] | 0.004 µM | 0.004 µM | 0.5 µM
O=C(O)CCC/C=C(/c1cccnc1)c1cccc(NC(=O)CCc2ccc(Cl)cc2)c1 [B, 5E-6-[3-(3-(4-Chlorphenyl)-propionylamino)-phenyl]-6-(3-pyridyl)-hex-5-ensäure] | 0.004 µM | 0.008 µM | 2.2 µM
O=C(O)CCC/C=C(/c1cccnc1)c1cccc(NC(=S)Nc2ccc(Cl)cc2)c1 [C, 5E-6-[3-(3-(4-Chlorphenyl)-thioureido)-phenyl]-6-(3-pyridyl)-hex-5-ensäure] | 0.032 µM | 0.012 µM | 0.8 µM
CN(C(=S)Nc1ccc(Cl)cc1Cl)c1cccc(/C(=C\CCCC(=O)O)c2cccnc2)c1 [D, 5E-6-[3-(3-(2,4-Dichlorphenyl)-1-methylthioureido)-phenyl]-6-(3-pyridyl)-hex-5-ensäure] | 0.09 µM | 0.017 µM | 1.2 µM
